Results: patent publication US5869477A, “β-methylcarbapenem derivatives, process for the preparation thereof and pharmaceutical composition comprising same” (priority 1995, dated 1999)
Like-named read-outs stand apart in the source and are kept apart here.

What was measured:
[1] = test system: S. typhimurium; experiment: agar plate dilution method, MIC; assay type: cell-based; details: about 10^7 CFU/ml, 37° C., 18 hours
Method: (§1) The antibacterial activities of the β-methylcarbapenem compounds of the present invention prepared in the above Examples were determined in accordance with the agar plate dilution method(Hoechst 345). Specifically,about 10^7 CFU/ml of test bacteria(Hoechst standard strains) was inoculated to a Muller-Hinton agar medium containing serial double dilutions of the test compounds, i.e., compounds prepared in Examples 1 to 3, and incubated at 37° C. for 18 hours. Tribactam(EP 416953) and SUN-5555(Santory Co., Japan) were employed as control materials for carbapenem and penem, respectively. When the incubation was completed, the minimum inhibitory concentration of each test compounds was determined.

[2] = test system: E. coli DC 0; experiment: agar plate dilution method, MIC; assay type: cell-based; details: about 10^7 CFU/ml, 37° C., 18 hours
Method: as §1

[3] = test system: E. coli TEM; experiment: agar plate dilution method, MIC; assay type: cell-based; details: about 10^7 CFU/ml, 37° C., 18 hours
Method: as §1

[4] = test system: S. aureus 285; experiment: agar plate dilution method, MIC; assay type: cell-based; details: about 10^7 CFU/ml, 37° C., 18 hours
Method: as §1

[5] = test system: S. aureus SG 511; experiment: agar plate dilution method, MIC; assay type: cell-based; details: about 10^7 CFU/ml, 37° C., 18 hours
Method: as §1

[6] = test system: K. oxytoca 1082 E; experiment: agar plate dilution method, MIC; assay type: cell-based; details: about 10^7 CFU/ml, 37° C., 18 hours
Method: as §1

[7] = test system: E. coli 1507 E; experiment: agar plate dilution method, MIC; assay type: cell-based; details: about 10^7 CFU/ml, 37° C., 18 hours
Method: as §1

[8] = test system: E. coli 078; experiment: agar plate dilution method, MIC; assay type: cell-based; details: about 10^7 CFU/ml, 37° C., 18 hours
Method: as §1

[9] = test system: S. aureus 503; experiment: agar plate dilution method, MIC; assay type: cell-based; details: about 10^7 CFU/ml, 37° C., 18 hours
Method: as §1

[10] = test system: P. aeruginosa 9027; experiment: agar plate dilution method, MIC; assay type: cell-based, Pseudomonas aeruginosa; details: about 10^7 CFU/ml, 37° C., 18 hours
Method: as §1

[11] = test system: P. aeruginosa 1771; experiment: agar plate dilution method, MIC; assay type: cell-based, Pseudomonas aeruginosa; details: about 10^7 CFU/ml, 37° C., 18 hours
Method: as §1

[12] = test system: P. aeruginosa 1592 E; experiment: agar plate dilution method, MIC; assay type: cell-based, Pseudomonas aeruginosa; details: about 10^7 CFU/ml, 37° C., 18 hours
Method: as §1

[13] = test system: P. aeruginosa 1771 M; experiment: agar plate dilution method, MIC; assay type: cell-based, Pseudomonas aeruginosa; details: about 10^7 CFU/ml, 37° C., 18 hours
Method: as §1

[14] = test system: S. pyogenes 308A; experiment: agar plate dilution method, MIC; assay type: cell-based, Streptococcus pyogenes; details: about 10^7 CFU/ml, 37° C., 18 hours
Method: as §1

[15] = test system: S. pyogenes 77A; experiment: agar plate dilution method, MIC; assay type: cell-based, Streptococcus pyogenes; details: about 10^7 CFU/ml, 37° C., 18 hours
Method: as §1

[16] = test system: K. aerogenes 1522 E; experiment: agar plate dilution method, MIC; assay type: cell-based, Klebsiella aerogenes; details: about 10^7 CFU/ml, 37° C., 18 hours
Method: as §1

[17] = test system: E. cloacae 1321 E; experiment: agar plate dilution method, MIC; assay type: cell-based, Enterobacter cloacae; details: about 10^7 CFU/ml, 37° C., 18 hours
Method: as §1

[18] = test system: S. faecium MD 8b; experiment: agar plate dilution method, MIC; assay type: cell-based, Streptococcus faecium; details: about 10^7 CFU/ml, 37° C., 18 hours
Method: as §1

[19] = test system: E. cloacae P 99; experiment: agar plate dilution method, MIC; assay type: cell-based, Enterobacter cloacae; details: about 10^7 CFU/ml, 37° C., 18 hours
Method: as §1

[20] = bioavailability indices in infected mice, one-compartment oral model; design: species or system I.C.R. mouse; details: in vivo; for AUC / p.o./s.c. / Cmax / Tmax / half-life: 40 mg/kg; for pharmacokinetics values and p.o. absorption versus controls (in words) / Cmax / Tmax / half-life: po
Method: The in vivo antibacterial activities and pharmacological activities of the β-methylcarbapenem compounds of the present invention were tested as follows. Specifically, 4 to 5 week-old I.C.R. mouse, each weighing 22 to 25 g and infected with Streptococcus pyogenes 77A, were administered per os with the solutions of the compounds of Examples 5 and 9 dissolved in 10% DMSO, at a dosage of 40 mg/kg body weight. The bioavailability indices, e.g., Cmax, Tmax, t1/2, AUC and p.o./s.c. were determined in accordance with one-compartment oral model method(Drug Metabolism Reviews, 17, 331-348(1986)). The one-compartment oral model was prepared by curve fitting using Gauss-Newto method and calculation using PKCALC computer program.

| SMILES | minimum inhibitory concentration [1] | minimum inhibitory concentration [2] | minimum inhibitory concentration [3] | minimum inhibitory concentration [4] | minimum inhibitory concentration [5] | minimum inhibitory concentration [6] | minimum inhibitory concentration [7] | minimum inhibitory concentration [8] | minimum inhibitory concentration [9] | minimum inhibitory concentration [10] | minimum inhibitory concentration [11] | minimum inhibitory concentration [12] | minimum inhibitory concentration [13] | minimum inhibitory concentration [14] | minimum inhibitory concentration [15] | minimum inhibitory concentration [16] | minimum inhibitory concentration [17] | minimum inhibitory concentration [18] | p.o./s.c. ([20]; mouse) | half-life ([20]; mouse) | other results |
| --- | --- | --- | --- | --- | --- | --- | --- | --- | --- | --- | --- | --- | --- | --- | --- | --- | --- | --- | --- | --- | --- |
| CC(C)[C@@H](O)C1=C(C(=O)O)N2C(=O)[C@H]([C@@H](C)O)[C@H]2[C@H]1C [Example 1, potassium (1S, 5R, 6S)-2-[(1R)-1-hydroxy-2-methylpropyl]-6-[(1R)-1-hydroxyethyl]-1-methyl-2-carbapenem-3-carboxylate] | 0.098 | 0.195 | 0.195 | 0.098 | 0.098 | 1.563 | 0.049 | 0.049 | 0.098 | > 100 | 100 | > 100 | 0.781 | 0.013 | 0.013 | 0.391 | 0.098 | 3.125 | – | – | – |
| C[C@@H](O)[C@H]1C(=O)N2C(C(=O)O)=C([C@H](O)C3CC3)[C@H](C)[C@H]12 [Example 2, potassium (1S, 5R, 6S)-2-[(R)-(cyclopropyl) hydroxymethyl]-6-[(1R)-1-hydroxyethyl]-1-methyl-2-carbapenem-3-carboxylate] | 0.098 | 0.098 | 0.098 | 0.049 | 0.049 | 0.781 | 0.049 | 0.098 | 0.049 | 100.0 | 100.0 | 100.0 | 1.563 | 0.007 | 0.007 | 0.195 | 0.098 | 0.781 | – | – | – |
| C[C@@H](O)[C@H]1C(=O)N2C(C(=O)O)=C([C@H](O)C3CCCC3)[C@H](C)[C@H]12 [Example 3, potassium (1S, 5R, 6S)-2-[(R)-(cyclopentyl)hydroxymethyl]-6-[(1R)-1-hydroxyethyl]-1-methyl-2-carbapenem-3-carboxylate] | 0.098 | – | 0.391 | 0.098 | 0.098 | 1.563 | 0.098 | 0.195 | 0.098 | > 100.0 | > 100.0 | > 100.0 | 1.563 | 0.004 | 0.007 | 0.781 | 0.391 | 0.781 | – | – | minimum inhibitory concentration [19]: 6.250 |
| Cc1oc(=O)oc1COC(=O)C1=C([C@H](O)C(C)C)[C@H](C)[C@@H]2[C@@H]([C@@H](C)O)C(=O)N12 [Example 5, (5-methyl-2-oxo-1,3-dioxolen-4-yl)methyl (1S, 5R, 6S)-2-[(1R)-1-hydroxy-2-methylpropyl]-6-[(1R)-1-hydroxyethyl]-1-methyl-2-carbapenem-3-carboxylate] | – | – | – | – | – | – | – | – | – | – | – | – | – | – | – | – | – | – | 32.50% | 16.2 min | AUC ([20]; mouse): 3.80; pharmacokinetics values and p.o. absorption versus controls (in words) ([20]; mouse): superior pharmacokinetics values and p.o. absorption over the controls; Cmax ([20]; mouse): 8770 ng/mL; Tmax ([20]; mouse): 10.2 min |
| CC(C)OC(=O)OC(C)OC(=O)C1=C([C@H](O)C(C)C)[C@H](C)[C@@H]2[C@@H]([C@@H](C)O)C(=O)N12 (stereo partly drawn) [Example 9, isopropyloxycarbonyloxy-1-ethyl (1S, 5R, 6S)-2-[(1R)-1-hydroxy-2-methylpropyl]-6-[(1R)-1-hydroxyethyl]-1-methyl-2-carbapenem-3-carboxylate] | – | – | – | – | – | – | – | – | – | – | – | – | – | – | – | – | – | – | 32.42% | 19.8 min | AUC ([20]; mouse): 6.78; pharmacokinetics values and p.o. absorption versus controls (in words) ([20]; mouse): superior pharmacokinetics values and p.o. absorption over the controls; Cmax ([20]; mouse): 10400 ng/mL; Tmax ([20]; mouse): 19.8 min |
| C[C@@H](O)[C@H]1C(=O)N2C(C(=O)O)=C([C@H]3CCCO3)S[C@H]12 [SUN-5555, reference compound] | 0.195 | 0.781 | 0.391 | 0.098 | 0.098 | 0.391 | 0.195 | 0.195 | 0.098 | > 100.0 | > 100.0 | > 100.0 | 3.125 | 0.013 | 0.007 | 0.391 | 0.391 | 6.250 | 22.71% | 22.8 min | minimum inhibitory concentration [19]: 1.563; Cmax ([20]; I.C.R. mouse infected with S. pyogenes 77A, per os, 10% DMSO, read-out: Cmax): 2640 ng/mL; Tmax ([20]; I.C.R. mouse infected with S. pyogenes 77A, per os, 10% DMSO, read-out: Tmax): 25.2 min |
